Laboratory results as given in ChEMBL document CHEMBL1125786, “Synthesis and biological evaluation of hydroxamate-based iron chelators” (1991).

Tests used:
Type in all cases: functional
[1] = tested on: Rattus norvegicus; test: Total iron output induced by the compound in urine (non-iron-overloaded bile duct cannulated rat), after 24 hours of po administration.
[2] = tested on: Rattus norvegicus; test: Total iron output induced by the compound in urine (non-iron-overloaded bile duct cannulated rat), after 24 hours of sc administration.
[3] = tested on: Rattus norvegicus; test: Total iron output induced by the compound in bile (non-iron-overloaded bile duct cannulated rat), after 15 hours of po administration.
[4] = tested on: Rattus norvegicus; test: Total iron output induced by the compound in bile (non-iron-overloaded bile duct cannulated rat), after 15 hours of sc administration.
[5] = tested on: Rattus norvegicus; test: Total iron output induced by the compound in bile (non-iron-overloaded bile duct cannulated rat), after 18 hours of po administration.
[6] = tested on: Rattus norvegicus; test: Total iron output induced by the compound in bile (non-iron-overloaded bile duct cannulated rat), after 18 hours of sc administration.
[7] = tested on: Rattus norvegicus; test: Total iron output induced by the compound in bile (non-iron-overloaded bile duct cannulated rat), after 21 hours of po administration.
[8] = tested on: Rattus norvegicus; test: Total iron output induced by the compound in bile (non-iron-overloaded bile duct cannulated rat), after 21 hours of sc administration.
[9] = tested on: Rattus norvegicus; test: Total iron output induced by the compound in bile (non-iron-overloaded bile duct cannulated rat), after 24 hours of po administration.
[10] = tested on: Rattus norvegicus; test: Total iron output induced by the compound in bile (non-iron-overloaded bile duct cannulated rat), after 24 hours of sc administration.
[11] = tested on: Rattus norvegicus; test: Total iron output induced by the compound in bile (non-iron-overloaded bile duct cannulated rat), after 3 hours of po administration.
[12] = tested on: Rattus norvegicus; test: Total iron output induced by the compound in bile (non-iron-overloaded bile duct cannulated rat), after 3 hours of sc administration.
[13] = tested on: Rattus norvegicus; test: Total iron output induced by the compound in bile (non-iron-overloaded bile duct cannulated rat), after 6 hours of po administration.
[14] = tested on: Rattus norvegicus; test: Total iron output induced by the compound in bile (non-iron-overloaded bile duct cannulated rat), after 6 hours of sc administration.
[15] = tested on: Rattus norvegicus; test: Total iron output induced by the compound in bile (non-iron-overloaded bile duct cannulated rat), after 9 hours of po administration.
[16] = tested on: Rattus norvegicus; test: Total iron output induced by the compound in bile (non-iron-overloaded bile duct cannulated rat), after 9 hours of sc administration.
[17] = tested on: Rattus norvegicus; test: Total iron output induced by the compound in non-iron-overloaded bile duct cannulated rat(Treated-control), after 24 hours of po administration.
[18] = tested on: Rattus norvegicus; test: Total iron output induced by the compound in non-iron-overloaded bile duct cannulated rat(Treated-control), after 24 hours of sc administration.
[19] = tested on: Rattus norvegicus; test: Total iron output induced by the compound in non-iron-overloaded bile duct cannulated rat, after 24 hours of po administration.
[20] = tested on: Rattus norvegicus; test: Total iron output induced by the compound in non-iron-overloaded bile duct cannulated rat, after 24 hours of sc administration.
[21] = tested on: Rattus norvegicus; test: Total iron output induced by the compound in bile (non-iron-overloaded bile duct cannulated rat), after 12 hours of po administration.
[22] = tested on: Rattus norvegicus; test: Total iron output induced by the compound in bile (non-iron-overloaded bile duct cannulated rat), after 12 hours of sc administration.

Molecule COCCOCCOCCN(O)C(=O)CCC(=O)NCCCCCN(O)C(=O)CCC(=O)NCCCCCN(O)C(=O)COCCOCCOC has an Iron output [1] of 13.3, an Iron output [2] of 45.3 and an Iron output [3] of 67.9. For the same molecule, the Iron output [4] was 509.1, the Iron output [5] was 74.6 and the Iron output [6] was 526. The Iron output [7] was 81.3, the Iron output [8] was 534.2 and the Iron output [9] was 86.6. It also gave an Iron output [10] of 539.7, an Iron output [11] of 16.3 and an Iron output [12] of 106.9. For the same molecule, the Iron output [13] was 31.7, the Iron output [14] was 244.4 and the Iron output [15] was 42.5. For the same molecule, the Iron output [16] was 362.6, the Iron output [17] was 34.6 and the Iron output [18] was 519.8. It also gave an Iron output [19] of 99.8, an Iron output [20] of 585 and an Iron output [21] of 59.7. The Iron output [22] was 467.

With COCCOCCOCCN(O)C(=O)CCC(=O)NCCCCCN(O)C(=O)CCC(=O)NCCCCCN(O)C(C)=O the Iron output [1] was 15, the Iron output [2] was 68.4 and the Iron output [3] was 76.5. It also gave an Iron output [4] of 519.6, an Iron output [5] of 83.8 and an Iron output [6] of 561.2. The Iron output [7] was 89, the Iron output [8] was 585.9 and the Iron output [9] was 93.7. It also gave an Iron output [10] of 599.5, an Iron output [11] of 20.2 and an Iron output [12] of 117.3. The Iron output [13] was 42.8, the Iron output [14] was 262.5 and the Iron output [15] was 56.8. For the same molecule, the Iron output [16] was 374.6, the Iron output [17] was 43.5 and the Iron output [18] was 602.7. It also gave an Iron output [19] of 108.7, an Iron output [20] of 667.9 and an Iron output [21] of 67.5. The Iron output [22] was 456.1.

Work on CC(=O)N(O)CCCCCNC(=O)CCC(=O)N(O)CCCCCNC(=O)CCC(=O)N(O)CCCCCN [DEFEROXAMINE] yielded an Iron output [1] of 16.5, an Iron output [2] of 49.2 and an Iron output [3] of 110.8. It also gave an Iron output [4] of 196.2, an Iron output [5] of 119.8 and an Iron output [6] of 210.7. For the same molecule, the Iron output [7] was 128.7, the Iron output [8] was 219.8 and the Iron output [9] was 135. The Iron output [10] was 228.4, the Iron output [11] was 14.7 and the Iron output [12] was 43.6. It also gave an Iron output [13] of 43.9, an Iron output [14] of 105.9 and an Iron output [15] of 76.8. It also gave an Iron output [16] of 152.8, an Iron output [17] of 86.3 and an Iron output [18] of 212.4. For the same molecule, the Iron output [19] was 151.5, the Iron output [20] was 277.6 and the Iron output [21] was 97.1. The Iron output [22] was 173.9.
